In US20120121591A1 (priority 2009, published 2012) one finds IC50 data, which are given here for eight molecules.

The structures appear in SMILES notation.

What all share (type): cell-based
One assay concerns the target hKv1.3 (Homo sapiens, UniProt P22001). Description: cell-based. To be noted: Kv1.3 (IWQ) IC50 (nM, Avg).
For assay [1], the system named is IL-2 secretion from T cells in human whole blood. The following applies: read-out: WB (IL-2) IC50 (nM, Avg).
Assay [2] relates to IFN-g secretion from T cells in human whole blood. To be noted: read-out: WB (IFNg) IC50 (nM, Avg).

Broadly, the IC50 is the point on the concentration scale where inhibition reaches its midpoint.

Chain of hKv1.3 (P22001 whole entry): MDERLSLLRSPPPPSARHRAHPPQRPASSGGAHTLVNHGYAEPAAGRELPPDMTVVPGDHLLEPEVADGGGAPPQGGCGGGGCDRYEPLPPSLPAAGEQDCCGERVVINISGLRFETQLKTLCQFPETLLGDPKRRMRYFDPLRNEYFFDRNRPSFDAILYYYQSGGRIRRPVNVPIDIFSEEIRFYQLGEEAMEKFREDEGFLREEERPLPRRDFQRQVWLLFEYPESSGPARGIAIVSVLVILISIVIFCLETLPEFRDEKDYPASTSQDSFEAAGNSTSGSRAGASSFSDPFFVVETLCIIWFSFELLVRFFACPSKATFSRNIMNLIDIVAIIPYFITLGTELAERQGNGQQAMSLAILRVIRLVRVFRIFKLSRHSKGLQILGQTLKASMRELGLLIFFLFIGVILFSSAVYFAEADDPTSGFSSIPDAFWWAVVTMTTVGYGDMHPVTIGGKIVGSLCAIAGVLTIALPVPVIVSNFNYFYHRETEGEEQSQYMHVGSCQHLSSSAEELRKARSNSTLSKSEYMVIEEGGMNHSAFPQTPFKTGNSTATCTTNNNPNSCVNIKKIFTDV

Take `CC[C@H](C)[C@@H]1NC(=O)[C@@H](NC(=O)[C@H](CO)NC(=O)[C@@H](N)CCCNC(=N)N)CSSC[C@@H](C(=O)O)NC(=O)[C@H]([C@@H](C)O)NC(=O)CNC(=O)[C@@H]2CSSC[C@@H]3NC(=O)[C@H](CCC(N)=O)NC(=O)[C@H](Cc4ccccc4)NC(=O)[C@H](C)NC(=O)[C@H]([C@@H](C)O)NC(=O)[C@H](CSSC[C@H](NC(=O)[C@H](Cc4ccccc4)NC(=O)[C@H](CO)NC(=O)[C@H](CC(C)C)NC(=O)[C@H](CCCNC(=N)N)NC(=O)[C@H](Cc4ccc(O)cc4)NC(=O)[C@H](CCCCN)NC(=O)[C@H](CCSC)NC(=O)[C@H](CO)NC(=O)[C@H](Cc4c[nH]cn4)NC(=O)[C@H](CCCCN)NC3=O)C(=O)N[C@@H](CCCNC(=N)N)C(=O)N[C@@H](C)C(=O)N[C@@H]([C@@H](C)O)C(=O)N2)NC(=O)[C@H](CCCNC(=N)N)NC(=O)[C@H](CO)NC(=O)[C@H](CCCCN)NC(=O)[C@@H]2CCCN2C(=O)[C@H]([C@@H](C)CC)NC(=O)[C@H]([C@@H](C)O)NC(=O)[C@H](CC(=O)O)NC1=O` [[Ala30]ShK]: the IC50 at hKv1.3 was determined as 0.178 nM; in assay [1] it was 0.258 nM; in assay [2], 0.394 nM.
Taken in the same sequence, the figures for `CC[C@H](C)[C@@H]1NC(=O)[C@@H](NC(=O)[C@H](CO)NC(=O)[C@@H](N)CCCNC(=N)N)CSSC[C@@H](C(=O)O)NC(=O)[C@H]([C@@H](C)O)NC(=O)[C@H](C)NC(=O)[C@@H]2CSSC[C@@H]3NC(=O)[C@H](CCC(N)=O)NC(=O)[C@H](Cc4ccccc4)NC(=O)[C@H](C)NC(=O)[C@H]([C@@H](C)O)NC(=O)[C@H](CSSC[C@H](NC(=O)[C@H](Cc4ccccc4)NC(=O)[C@H](CO)NC(=O)[C@H](CC(C)C)NC(=O)[C@H](CCCNC(=N)N)NC(=O)[C@H](Cc4ccc(O)cc4)NC(=O)[C@H](CCCCN)NC(=O)[C@H](CCSC)NC(=O)[C@H](CO)NC(=O)[C@H](Cc4c[nH]cn4)NC(=O)[C@H](CCCCN)NC3=O)C(=O)N[C@@H](CCCNC(=N)N)C(=O)N[C@@H](CCCCN)C(=O)N[C@@H]([C@@H](C)O)C(=O)N2)NC(=O)[C@H](CCCNC(=N)N)NC(=O)[C@H](CO)NC(=O)[C@H](CCCCN)NC(=O)[C@@H]2CCCN2C(=O)[C@H]([C@@H](C)CC)NC(=O)[C@H]([C@@H](C)O)NC(=O)[C@H](CC(=O)O)NC1=O` [[Ala33]ShK] were 0.075 nM, 0.049 nM and 0.1 nM.
Taken in the same sequence, the figures for `CC[C@H](C)[C@@H]1NC(=O)[C@@H](NC(=O)[C@H](CO)NC(=O)[C@@H](N)CCCNC(=N)N)CSSC[C@@H](C(=O)O)NC(=O)[C@H](C)NC(=O)CNC(=O)[C@@H]2CSSC[C@@H]3NC(=O)[C@H](CCC(N)=O)NC(=O)[C@H](Cc4ccccc4)NC(=O)[C@H](C)NC(=O)[C@H]([C@@H](C)O)NC(=O)[C@H](CSSC[C@H](NC(=O)[C@H](Cc4ccccc4)NC(=O)[C@H](CO)NC(=O)[C@H](CC(C)C)NC(=O)[C@H](CCCNC(=N)N)NC(=O)[C@H](Cc4ccc(O)cc4)NC(=O)[C@H](CCCCN)NC(=O)[C@H](CCSC)NC(=O)[C@H](CO)NC(=O)[C@H](Cc4c[nH]cn4)NC(=O)[C@H](CCCCN)NC3=O)C(=O)N[C@@H](CCCNC(=N)N)C(=O)N[C@@H](CCCCN)C(=O)N[C@@H]([C@@H](C)O)C(=O)N2)NC(=O)[C@H](CCCNC(=N)N)NC(=O)[C@H](CO)NC(=O)[C@H](CCCCN)NC(=O)[C@@H]2CCCN2C(=O)[C@H]([C@@H](C)CC)NC(=O)[C@H]([C@@H](C)O)NC(=O)[C@H](CC(=O)O)NC1=O` [[Ala34]ShK] were 0.123 nM, 0.063 nM and 0.075 nM.
For `CC[C@H](C)[C@@H]1NC(=O)[C@@H](NC(=O)[C@H](CCCNC(=N)N)NC(=O)[C@@H](N)CCCNC(=N)N)CSSC[C@@H](C(=O)O)NC(=O)[C@H]([C@@H](C)O)NC(=O)CNC(=O)[C@@H]2CSSC[C@@H]3NC(=O)[C@H](CCC(N)=O)NC(=O)[C@H](Cc4ccccc4)NC(=O)[C@H](C)NC(=O)[C@H]([C@@H](C)O)NC(=O)[C@H](CSSC[C@H](NC(=O)[C@H](Cc4ccccc4)NC(=O)[C@H](CO)NC(=O)[C@H](CC(C)C)NC(=O)[C@H](CCCNC(=N)N)NC(=O)[C@H](Cc4ccc(O)cc4)NC(=O)[C@H](CCCCN)NC(=O)[C@H](CCSC)NC(=O)[C@H](CO)NC(=O)[C@H](Cc4c[nH]cn4)NC(=O)[C@H](CCCCN)NC3=O)C(=O)N[C@@H](CCCNC(=N)N)C(=O)N[C@@H](CCCCN)C(=O)N[C@@H]([C@@H](C)O)C(=O)N2)NC(=O)[C@H](CCCNC(=N)N)NC(=O)[C@H](CO)NC(=O)[C@H](CCCCN)NC(=O)[C@@H]2CCCN2C(=O)[C@H]([C@@H](C)CC)NC(=O)[C@H]([C@@H](C)O)NC(=O)[C@H](CC(=O)O)NC1=O` [[Arg2]ShK], the IC50 on hKv1.3 amounted to 0.074 nM; in assay [1], 0.097 nM; in assay [2] it was 0.087 nM.
In the case of `CC[C@H](C)[C@@H]1NC(=O)[C@@H](NC(=O)[C@H](CO)NC(=O)[C@@H](N)CCCNC(=N)N)CSSC[C@@H](C(=O)O)NC(=O)[C@H]([C@@H](C)O)NC(=O)CNC(=O)[C@@H]2CSSC[C@@H]3NC(=O)[C@H](CCC(N)=O)NC(=O)[C@H](Cc4ccccc4)NC(=O)[C@H](C)NC(=O)[C@H]([C@@H](C)O)NC(=O)[C@H](CSSC[C@H](NC(=O)[C@H](Cc4ccccc4)NC(=O)[C@H](CO)NC(=O)[C@H](CC(C)C)NC(=O)[C@H](CCCNC(=N)N)NC(=O)[C@H](Cc4ccc(O)cc4)NC(=O)[C@H](CCCCN)NC(=O)[C@H](CCSC)NC(=O)[C@H](CO)NC(=O)[C@H](Cc4c[nH]cn4)NC(=O)[C@H](CCCCN)NC3=O)C(=O)N[C@@H](CCCNC(=N)N)C(=O)N[C@@H](CCCCN)C(=O)N[C@@H]([C@@H](C)O)C(=O)N2)NC(=O)[C@H](CCCNC(=N)N)NC(=O)[C@H](CO)NC(=O)[C@H](CCCCN)NC(=O)[C@@H]2CCCN2C(=O)[C@H]([C@@H](C)CC)NC(=O)[C@H]([C@@H](C)O)NC(=O)[C@H](CCCNC(=N)N)NC1=O` [[Arg5]ShK], the IC50 against hKv1.3 came to 3.3 nM; in assay [1] it was 47.3 nM; in assay [2], 91.7 nM.
In the case of `CC[C@H](C)[C@@H]1NC(=O)[C@@H](NC(=O)[C@H](CO)NC(=O)[C@@H](N)CCCNC(=N)N)CSSC[C@@H](C(=O)O)NC(=O)[C@H]([C@@H](C)O)NC(=O)CNC(=O)[C@@H]2CSSC[C@@H]3NC(=O)[C@H](CCC(N)=O)NC(=O)[C@H](Cc4ccccc4)NC(=O)[C@H](C)NC(=O)[C@H]([C@@H](C)O)NC(=O)[C@H](CSSC[C@H](NC(=O)[C@H](Cc4ccccc4)NC(=O)[C@H](CO)NC(=O)[C@H](CC(C)C)NC(=O)[C@H](CCCNC(=N)N)NC(=O)[C@H](Cc4ccc(O)cc4)NC(=O)[C@H](CCCCN)NC(=O)[C@H](CCSC)NC(=O)[C@H](CO)NC(=O)[C@H](Cc4c[nH]cn4)NC(=O)[C@H](CCCCN)NC3=O)C(=O)N[C@@H](CCCNC(=N)N)C(=O)N[C@@H](CCCCN)C(=O)N[C@@H]([C@@H](C)O)C(=O)N2)NC(=O)[C@H](CCCNC(=N)N)NC(=O)[C@H](CO)NC(=O)[C@H](CCCCN)NC(=O)[C@@H]2CCCN2C(=O)[C@H]([C@@H](C)CC)NC(=O)[C@H](CCCNC(=N)N)NC(=O)[C@H](CC(=O)O)NC1=O` [[Arg6]ShK], the figures for the IC50 (against hKv1.3; in assay [1]; in assay [2]) were 0.178 nM, 0.246 nM and 0.4 nM, respectively.
In the case of `CC[C@H](C)[C@@H]1NC(=O)[C@@H](NC(=O)[C@H](CO)NC(=O)[C@@H](N)CCCNC(=N)N)CSSC[C@@H](C(=O)O)NC(=O)[C@H]([C@@H](C)O)NC(=O)CNC(=O)[C@@H]2CSSC[C@@H]3NC(=O)[C@H](CCC(N)=O)NC(=O)[C@H](Cc4ccccc4)NC(=O)[C@H](C)NC(=O)[C@H]([C@@H](C)O)NC(=O)[C@H](CSSC[C@H](NC(=O)[C@H](Cc4ccccc4)NC(=O)[C@H](CO)NC(=O)[C@H](CC(C)C)NC(=O)[C@H](CCCNC(=N)N)NC(=O)[C@H](Cc4ccc(O)cc4)NC(=O)[C@H](CCCCN)NC(=O)[C@H](CCSC)NC(=O)[C@H](CO)NC(=O)[C@H](Cc4c[nH]cn4)NC(=O)[C@H](CCCCN)NC3=O)C(=O)N[C@@H](CCCNC(=N)N)C(=O)N[C@@H](CCCCN)C(=O)N[C@@H]([C@@H](C)O)C(=O)N2)NC(=O)[C@H](CCCNC(=N)N)NC(=O)[C@H](CO)NC(=O)[C@H](CCCCN)NC(=O)[C@@H]2CCCN2C(=O)[C@H](CCCNC(=N)N)NC(=O)[C@H]([C@@H](C)O)NC(=O)[C@H](CC(=O)O)NC1=O` [[Arg7]ShK], the 50% inhibitory concentration (IC50) against hKv1.3 amounted to 0.301 nM; in assay [1], 6.39 nM; in assay [2], 11.1 nM.
On the same counts, the results for `CC[C@H](C)[C@@H]1NC(=O)[C@@H](NC(=O)[C@H](CO)NC(=O)[C@@H](N)CCCNC(=N)N)CSSC[C@@H](C(=O)O)NC(=O)[C@H]([C@@H](C)O)NC(=O)CNC(=O)[C@@H]2CSSC[C@@H]3NC(=O)[C@H](CCC(N)=O)NC(=O)[C@H](Cc4ccccc4)NC(=O)[C@H](C)NC(=O)[C@H]([C@@H](C)O)NC(=O)[C@H](CSSC[C@H](NC(=O)[C@H](Cc4ccccc4)NC(=O)[C@H](CO)NC(=O)[C@H](CC(C)C)NC(=O)[C@H](CCCNC(=N)N)NC(=O)[C@H](Cc4ccc(O)cc4)NC(=O)[C@H](CCCCN)NC(=O)[C@H](CCSC)NC(=O)[C@H](CO)NC(=O)[C@H](Cc4c[nH]cn4)NC(=O)[C@H](CCCCN)NC3=O)C(=O)N[C@@H](CCCNC(=N)N)C(=O)N[C@@H](CCCCN)C(=O)N[C@@H]([C@@H](C)O)C(=O)N2)NC(=O)[C@H](CCCNC(=N)N)NC(=O)[C@H](CO)NC(=O)[C@H](CCCCN)NC(=O)[C@H](CCCNC(=N)N)NC(=O)[C@H]([C@@H](C)CC)NC(=O)[C@H]([C@@H](C)O)NC(=O)[C@H](CC(=O)O)NC1=O` [[Arg8]ShK] are 0.07 nM, 0.187 nM and 1.42 nM.
